Results as given in patent US12679843B2, “Pyrrolopyrimidine amines as complement inhibitors” (BioCryst Pharmaceuticals, Inc., priority 2020, dated 2026).

molecular target: Factor D (Homo sapiens, UniProt P00746); assay: Factor D esterolytic assay (Z-Lys-SBzl thioester substrate, DTNB, 405 nm); format: biochemical; settings: substrate Z-Lys-SBzl 1.29 mM, 100 mM HEPES, 500 mM NaCl, pH 7.5, 10% DMSO, tested a minimum of three times
In short: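 Human Factor D hydrolysis of Z-Lys-SBzl (1.29 mM) monitored at 405 nm via DTNB thiol detection for 600 s, 690 nm background subtracted. Buffer 100 mM HEPES, 500 mM NaCl, pH 7.5, 10% DMSO; substrate added immediately or after room-temperature preincubation. IC50 from percent inhibition of rate, at least three tests.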

Factor D, sequence (P00746 26-253): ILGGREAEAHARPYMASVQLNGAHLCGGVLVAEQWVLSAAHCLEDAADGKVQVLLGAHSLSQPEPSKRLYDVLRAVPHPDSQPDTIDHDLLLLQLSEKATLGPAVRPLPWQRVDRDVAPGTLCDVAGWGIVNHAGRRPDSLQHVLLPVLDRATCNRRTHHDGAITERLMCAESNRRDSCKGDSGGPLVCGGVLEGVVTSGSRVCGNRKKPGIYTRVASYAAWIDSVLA

| SMILES | IC50 [µM] |
| --- | --- |
| Nc1ncnc2c1c1cc(-c3ccc(F)cc3)ccc1n2CC(=O)N1[C@@H]2C[C@@H]2C[C@H]1C(=O)Nc1cccc(Br)n1 [Compound 335c, (1R,3S,5R)-2-(2-(4-amino-6-(4-fluorophenyl)-9H-pyrimido[4,5-b]indol-9-yl)acetyl)-N-(6-bromopyridin-2-yl)-2-azabicyclo[3.1.0]hexane-3-carboxamide] | < 0.1 |
| CNc1ncnc2c1cnn2CC(=O)N1CCC[C@H]1C(=O)Nc1cccc(Br)n1 [Compound 75d, (S)—N-(6-bromopyridin-2-yl)-1-(2-(4-(methylamino)-1H-pyrazolo[3,4-d]pyrimidin-1-yl)acetyl)pyrrolidine-2-carboxamide] | > 1 |
| NC[C@@H]1C[C@@H](C(=O)Nc2cccc(Br)n2)N(C(=O)Cn2c3ccc(C(F)(F)F)cc3c3c(N)ncnc32)C1 [Compound 211e, (2S,4S)-1-(2-(4-amino-6-(trifluoromethyl)-9H-pyrimido[4,5-b]indol-9-yl)acetyl)-4-(aminomethyl)-N-(6-bromopyridin-2-yl)pyrrolidine-2-carboxamide] | 0.1 to 1 |
| Nc1cn(CC(=O)N2[C@@H]3C[C@@H]3C[C@H]2C(=O)Nc2cccc(Br)n2)c2ncncc12 [Compound 129f, (1R,3S,5R)-2-(2-(5-amino-7H-pyrrolo[2,3-d]pyrimidin-7-yl)acetyl)-N-(6-bromopyridin-2-yl)-2-azabicyclo[3.1.0]hexane-3-carboxamide] | 0.1 to 1 |
| COC(=O)c1cc(C)c2c(c1)c1c(N)ncnc1n2CC(=O)N1[C@H](C(=O)Nc2cccc(Br)n2)C[C@@]2(C)C[C@@H]12 [Compound 216g, methyl 4-amino-9-(2-((1R,3S,5R)-3-((6-bromopyridin-2-yl)carbamoyl)-5-methyl-2-azabicyclo[3.1.0]hexan-2-yl)-2-oxoethyl)-8-methyl-9H-pyrimido[4,5-b]indole-6-carboxylate] | < 0.1 |
| Cc1cc(-c2ccnc(C(F)(F)F)c2)cc2c3c(N)ncnc3n(CC(=O)N3[C@@H]4C[C@@H]4C[C@H]3C(=O)Nc3cccc(Br)n3)c12 [Compound 354c, (1R,3S,5R)-2-(2-(4-amino-8-methyl-6-(2-(trifluoromethyl)pyridin-4-yl)-9H-pyrimido[4,5-b]indol-9-yl)acetyl)-N-(6-bromopyridin-2-yl)-2-azabicyclo[3.1.0]hexane-3-carboxamide] | < 0.1 |
| COc1cc2c(cc1F)c1c(N)ncnc1n2CC(=O)N1[C@@H]2C[C@@H]2C[C@H]1C(=O)Nc1cccc(Br)n1 [Compound 383g, (1R,3S,5R)-2-(2-(4-amino-6-fluoro-7-methoxy-9H-pyrimido[4,5-b]indol-9-yl)acetyl)-N-(6-bromopyridin-2-yl)-2-azabicyclo[3.1.0]hexane-3-carboxamide] | < 0.1 |
| CO[C@H]1C[C@@H](C(=O)Nc2cccc(Br)n2)N(C(=O)Cn2c3ccc(C(F)(F)F)cc3c3c(N)ncnc32)C1 [Compound 247d, (2S,4S)-1-(2-(4-amino-6-(trifluoromethyl)-9H-pyrimido[4,5-b]indol-9-yl)acetyl)-N-(6-bromopyridin-2-yl)-4-methoxypyrrolidine-2-carboxamide] | 0.1 to 1 |
| O=C1NCc2cnc3c(ccn3CC(=O)N3C[C@H](F)C[C@H]3C(=O)NCc3cccc(Cl)c3F)c2N1 [Compound 235a, (2S,4R)—N-(3-chloro-2-fluorobenzyl)-4-fluoro-1-(2-(2-oxo-3,4-dihydro-1H-pyrrolo[3′,2′:5,6]pyrido[4,3-d]pyrimidin-7 (2H)-yl)acetyl)pyrrolidine-2-carboxamide] | > 1 |
| Nc1ncnc2c1c(-c1ccccc1)cn2CC(=O)N1C[C@H](F)C[C@H]1C(=O)NCc1cccc(Cl)c1F [Compound 135a, (2S,4R)-1-(2-(4-amino-5-phenyl-7H-pyrrolo[2,3-d]pyrimidin-7-yl)acetyl)-N-(3-chloro-2-fluorobenzyl)-4-fluoropyrrolidine-2-carboxamide] | 0.1 to 1 |
| Cc1ccc(Br)nc1NC(=O)[C@@H]1C[C@H]2C[C@H]2N1C(=O)Cn1c2ccc(C(F)(F)F)cc2c2c(N)ncnc21 [Compound 15a, (1R,3S,5R)-2-(2-(4-amino-6-(trifluoromethyl)-9H-pyrimido[4,5-b]indol-9-yl)acetyl)-N-(6-bromo-3-methylpyridin-2-yl)-2-azabicyclo[3.1.0]hexane-3-carboxamide] | < 0.1 |
| Cc1ccc2c(c1)c1c(N)ncnc1n2C(C)C(=O)N1[C@@H]2C[C@@H]2C[C@H]1C(=O)Nc1cccc(Br)n1 (single isomer, unassigned) [Compound 22d] | > 1 |
| CCOC(=O)CCc1ccc2c(c1)c1c(N)ncnc1n2CC(=O)N1[C@H](C(=O)Nc2cccc(Br)n2)C[C@@]2(C)C[C@@H]12 [Compound 190a, ethyl 3-(4-amino-9-(2-((1R,3S,5R)-3-((6-bromopyridin-2-yl)carbamoyl)-5-methyl-2-azabicyclo[3.1.0]hexan-2-yl)-2-oxoethyl)-9H-pyrimido[4,5-b]indol-6-yl)propanoate] | < 0.1 |
| Cc1cn(CC(=O)N2C[C@H](F)C[C@H]2C(=O)NCc2cccc(Cl)c2F)c2ncnc(N)c12 [Compound 150d, (2S,4R)-1-(2-(4-amino-5-methyl-7H-pyrrolo[2,3-d]pyrimidin-7-yl)acetyl)-N-(3-chloro-2-fluorobenzyl)-4-fluoropyrrolidine-2-carboxamide] | 0.1 to 1 |
| Nc1ncnc2c1c1cc(-c3ccccc3)ccc1n2CC(=O)N1[C@@H]2C[C@@H]2C[C@H]1C(=O)Nc1cccc(Br)n1 [Compound 62c, (1R,3S,5R)-2-(2-(4-amino-6-phenyl-9H-pyrimido[4,5-b]indol-9-yl)acetyl)-N-(6-bromopyridin-2-yl)-2-azabicyclo[3.1.0]hexane-3-carboxamide] | < 0.1 |
| Nc1ncnc2c1c(-c1cc3ccccc3[nH]1)cn2CC(=O)N1C[C@H](F)C[C@H]1C(=O)NCc1cccc(Cl)c1F [Compound 133b, (2S,4R)-1-(2-(4-amino-5-(1H-indol-2-yl)-7H-pyrrolo[2,3-d]pyrimidin-7-yl)acetyl)-N-(3-chloro-2-fluorobenzyl)-4-fluoropyrrolidine-2-carboxamide] | < 0.1 |
| Cc1cc(C(F)(F)F)cc2c3c(N)ncnc3n(CC(=O)N3[C@@H]4C[C@@H]4C[C@H]3C(=O)Nc3cncc(Br)n3)c12 [Compound 295a, (1R,3S,5R)-2-(2-(4-amino-8-methyl-6-(trifluoromethyl)-9H-pyrimido[4,5-b]indol-9-yl)acetyl)-N-(6-bromopyrazin-2-yl)-2-azabicyclo[3.1.0]hexane-3-carboxamide] | < 0.1 |
| Nc1ncnc2c1c(-c1ccc3cc[nH]c3c1)cn2CC(=O)N1C[C@H](F)C[C@H]1C(=O)NCc1cccc(Cl)c1F [Compound 137b, (2S,4R)-1-(2-(4-amino-5-(1H-indol-6-yl)-7H-pyrrolo[2,3-d]pyrimidin-7-yl)acetyl)-N-(3-chloro-2-fluorobenzyl)-4-fluoropyrrolidine-2-carboxamide] | < 0.1 |
| CNC(=O)c1ccc2c(c1)c1c(N)ncnc1n2CC(=O)N1[C@H](C(=O)Nc2cccc(Br)n2)C[C@@]2(C)C[C@@H]12 [Compound 196d, 4-amino-9-(2-((1R,3S,5R)-3-((6-bromopyridin-2-yl)carbamoyl)-5-methyl-2-azabicyclo[3.1.0]hexan-2-yl)-2-oxoethyl)-N-methyl-9H-pyrimido[4,5-b]indole-6-carboxamide] | < 0.1 |
| Nc1ncnc2c1c1cc(C(=O)NCC3CC3)ccc1n2CC(=O)N1[C@@H]2C[C@@H]2C[C@H]1C(=O)Nc1cccc(Br)n1 [Compound 169f, 4-amino-9-(2-((1R,3S,5R)-3-((6-bromopyridin-2-yl)carbamoyl)-2-azabicyclo[3.1.0]hexan-2-yl)-2-oxoethyl)-N-(cyclopropylmethyl)-9H-pyrimido[4,5-b]indole-6-carboxamide] | < 0.1 |
| Cc1cc(C(=O)O)cc2c3c(N)ncnc3n(CC(=O)N3[C@@H]4C[C@@H]4C[C@H]3C(=O)Nc3cccc(Br)n3)c12 [Compound 218a, 4-amino-9-(2-((1R,3S,5R)-3-((6-bromopyridin-2-yl)carbamoyl)-2-azabicyclo[3.1.0]hexan-2-yl)-2-oxoethyl)-8-methyl-9H-pyrimido[4,5-b]indole-6-carboxylic acid] | < 0.1 |
| Cc1cc2c3c(N)ncnc3n(CC(=O)N3[C@H](C(=O)Nc4cccc(Br)n4)C[C@@]4(C)C[C@@H]34)c2cc1F [Compound 385a, (1R,3S,5R)-2-(2-(4-amino-7-fluoro-6-methyl-9H-pyrimido[4,5-b]indol-9-yl)acetyl)-N-(6-bromopyridin-2-yl)-5-methyl-2-azabicyclo[3.1.0]hexane-3-carboxamide] | < 0.1 |
| Cc1ccc2c(n1)c1c(N)ncnc1n2CC(=O)N1[C@@H]2C[C@@H]2C[C@H]1C(=O)Nc1cccc(Br)n1 [Compound 285g, (1R,3S,5R)-2-(2-(4-amino-6-methyl-9H-pyrido[2′,3′:4,5]pyrrolo[2,3-d]pyrimidin-9-yl)acetyl)-N-(6-bromopyridin-2-yl)-2-azabicyclo[3.1.0]hexane-3-carboxamide] | < 0.1 |
| COc1cc2c3c(N)ncnc3n(CC(=O)N3[C@H](C(=O)Nc4cccc(Br)n4)C[C@@]4(C)C[C@@H]34)c2cc1OC [Compound 277a, (1R,3S,5R)-2-(2-(4-amino-6,7-dimethoxy-9H-pyrimido[4,5-b]indol-9-yl)acetyl)-N-(6-bromopyridin-2-yl)-5-methyl-2-azabicyclo[3.1.0]hexane-3-carboxamide] | < 0.1 |
| C[C@@]12C[C@@H](C(=O)Nc3cccc(Br)n3)N(C(=O)Cn3c4ccc(-c5ccncc5)nc4c4c(N)ncnc43)[C@@H]1C2 [Compound 373a, (1R,3S,5R)-2-(2-(4-amino-6-(pyridin-4-yl)-9H-pyrido[2′,3′:4,5]pyrrolo[2,3-d]pyrimidin-9-yl)acetyl)-N-(6-bromopyridin-2-yl)-5-methyl-2-azabicyclo[3.1.0]hexane-3-carboxamide] | 0.1 to 1 |
